# Results taken from publication PMC6685951, “Migration of Bacteriocins Across Gastrointestinal Epithelial and Vascular Endothelial Cells, as Determined Using In Vitro Simulations” (Scientific Reports, 2019).
# Where a SMILES comes first, the peptide text is derived from it. Bridges are numbered along the chain shown (N, C = ends).
# What was measured:
# L. monocytogenes EGDe = format: cell-based, Listeria monocytogenes; conditions: microtiter plate, Listeria enrichment broth, 37 °C, OD600; lowest concentration inhibiting growth after 18 h
# Procedure: The BCA assay was used according to the manufactures instructions to determine the concentration of the peptides. The MIC of the peptides was determined using a microtiter plate. Briefly, L. monocytogenes EGDe was inoculated into Listeria enrichment broth (LEB) and incubated overnight at 37 °C. The culture was inoculated into fresh LEB and incubated until an OD600 of 0.1 was reached. A series of peptide concentrations was prepared and 50 µL of each added per well, followed by the addition of 150 µL culture. The controls were ddH2O containing 0.1% (v/v) TFA with 150 µL culture or media. Microtiter plates were incubated at 37 °C and OD600 readings were taken at T0, T5 and T18 (hours). The MIC was determined as the lowest peptide concentration required to inhibit the growth of L. monocytogenes EGDe after 18 h.
# Caco-2 cells [1] = assay: XTT viability assay, Caco-2; format: cell-based, human; conditions: 24 h, 37 °C
# Procedure: (§1) For viability and cytotoxicity studies, cells were seeded in 96-well flat-bottom culture plates (1 × 10^4 cells/well). To determine migration of nisin A, plantaricin 423 and bacST4SA across the gastrointestinal epithelial and vascular endothelial barriers, HUVEC and Caco-2 cells were grown on an 8 µm pore size tissue culture insert, as shown in Fig. 1. All cell culture experiments were done in triplicate and have been repeated more than three times.
# (§2) Cells were grown in 100 µL of culture medium for 24 h at 37 °C. The bacteriocins were separately added to the cells at concentrations of 25 µM, 50 µM and 100 µM. Sterile ultrapure water was used as control. After 24 h of incubation at 37 °C, the reaction mixture containing PMS (N-methyl-dibenzopyrazine-methylsulfate/phenazine methosulphate) and XTT solution, was added to each well and incubated for 4 h at 37 °C. Absorbance readings were recorded at 450 nm, using a microtiter plate reader. The percentage viability was calculated as AT/AC × 100; where AT is the absorbance of peptide-treated cells and AC is the absorbance of control (untreated cells).
# HUVEC = assay: XTT viability assay, HUVEC; format: cell-based, human; conditions: 24 h, 37 °C
# Procedure: as §1, §2
# Caco-2 cells [2] = assay: Neutral red viability assay, Caco-2; format: cell-based, human; conditions: 24 h, 37 °C
# Procedure: as §1
# Cells were treated with different concentrations of the peptides as described for the XTT assay. Sterile ultrapure water was used as control. After incubation at 37 °C for 24 h, neutral red solution was added to the cells (10% of the culture volume). After 4 h of incubation at 37 °C, the medium was removed by aspiration and the cells were rinsed with neutral red fixative. The fixative was removed, the dye solubilized by adding […] and the cells were gently stirred for 10 min on a gyratory shaker. Absorbance readings were recorded at 540 nm and 690 nm, respectively, using a microtiter plate reader. The percentage viability was calculated as the absorbance of treated cells divided by the absorbance of untreated cells (AT/AC × 100).
# Caco-2 cell monolayer = assay: Migration across Caco-2 monolayer on transmigration inserts; format: in vitro ADME, human; conditions: 3 h
# Procedure: as §1
# HUVECs and Caco-2 cells were seeded onto transmigration inserts (Fig. 1) at a cell density of 1 × 10^5 cells/insert (200 µL). Inserts were carefully placed in a 24-well tissue culture plate containing 700 µL cell growth media. […] The integrity of the monolayers was monitored by ensuring trans-epithelial electrical resistance (TEER) readings remained above 300 Ω throughout the experiment (Millicell-ERS volt-ohm meter, Merck)[51],[52],[62]. […] Transmigration inserts containing no monolayer, was used to determine the total fluorescence. Samples were incubated for 3 h while absorbance was measured at 490 nm every 30 min using a microplate reader. Before each reading, inserts were removed and placed into new microplates containing fresh media. […]
# The percentage of peptide that attached to, or entered the cells was quantified by subtracting the sum of migrated peptide (eq. 4) and retained peptide (eq. 5) from the total fluorescence. […]
smiles,measurement,setting,value
"CC(C)C[C@@H]1NC(=O)[C@H](Cc2c[nH]cn2)NC(=O)[C@H](CO)NC(=O)[C@H](C(C)C)NC(=O)[C@H](CO)NC(=O)[C@@H](NC(=O)[C@H](CO)NC(=O)[C@H](Cc2ccccc2)NC(=O)[C@H](C)NC(=O)[C@H](CCC(N)=O)NC(=O)CNC(=O)[C@H](Cc2c[nH]c3ccccc23)NC(=O)[C@H](CC(N)=O)NC(=O)[C@@H](NC(=O)[C@H](CO)NC(=O)[C@@H]2CSSC[C@H](NC(=O)[C@@H](NC(=O)[C@@H](NC(=O)CNC(=O)[C@H](CC(N)=O)NC(=O)CNC(=O)[C@H](Cc3ccc(O)cc3)NC(=O)[C@H](Cc3ccc(O)cc3)NC(=O)[C@@H](N)CCCCN)C(C)C)[C@@H](C)O)C(=O)NCC(=O)N[C@@H](CCCCN)C(=O)N[C@@H](Cc3c[nH]cn3)C(=O)N[C@@H](CO)C(=O)N2)C(C)C)CSSC[C@@H](C(=O)O)NC(=O)[C@H](CCCCN)NC(=O)CNC(=O)[C@H](Cc2c[nH]cn2)NC(=O)CNC(=O)[C@H](Cc2ccccc2)NC(=O)[C@H](CC(N)=O)NC(=O)[C@H](C)NC1=O [plantaricin 423] (H-KYYGNGVTCGKHSCSVNWGQAFSCSVSHLANFGHGKC-OH; disulfide 9-14, 24-37; N-terminus and C-terminus assumed)",MIC,L. monocytogenes EGDe,12 µM
same,cell viability (XTT),"Caco-2 cells [1]; Caco-2, 25 µM and 50 µM (up to 50 µM), absorbance 450 nm",did not cause significant decreases
same,cell viability (XTT),"Caco-2 cells [1]; Caco-2, 100 µM",slight reduction
same,cell viability (XTT),"HUVEC; 25 µM and 50 µM (up to 50 µM), absorbance 450 nm",did not cause significant decreases
same,cell viability (XTT),HUVEC; 100 µM,slight reduction
same,cell viability (neutral red),"Caco-2 cells [2]; Caco-2, 25 µM and 50 µM (up to 50 µM)",did not cause significant decreases
same,cell viability (neutral red),"Caco-2 cells [2]; Caco-2, 100 µM",slight reduction
same,percentage attached and/or entered peptide,"Caco-2 cell monolayer; Caco-2, labelled peptide 50 µM, total fluorescence minus migrated and residual peptide",11%
same,migrated peptide,"Caco-2 cell monolayer; Caco-2 monolayer on 8 µm pore insert, apical addition, NHS-fluorescein labelled peptide 50 µM, 37 °C, TEER above 300 Ω, read at 490 nm, % of no-monolayer control, triplicate",85%
